Results from BindingDB's records for doi:10.1021/jm00017a003 (Sterling Winthrop Pharmaecuticals Research Division, 1995).

Experiment: The compound was tested for inhibition of HIV-1 replication in SW480 cells using HIV tat assay

Row | Compound | IC50
1 | C[C@]12CC[C@H]3[C@@H](CC[C@@]45O[C@@H]4C(=O)C(S(=O)(=O)c4ccccc4)C[C@]35C)[C@@H]1CC[C@@H]2O (some centres not stated) | 10.3 µM
2 | C[C@]12CCCC[C@]1(O)[C@H](Cl)C(=O)C(C(N)=O)C2 (some centres not stated) | 32.1 µM
3 | CC(=O)O[C@H]1CC[C@H]2[C@@H]3CC[C@@]45O[C@@H]4C(=O)C(C#N)C[C@]5(C)[C@H]3CC[C@]12C (some centres not stated) | 24.5 µM
4 | C[C@@]12CCCC[C@@]1(O)[C@@H](Cl)C(=O)C(C(=O)Nc1ccccc1)C2 (some centres not stated) | 7 µM
5 | CC(=O)O[C@H]1CC[C@H]2[C@@H]3CC[C@@]4(O)[C@@H](Cl)C(=O)C(C(N)=O)C[C@]4(C)[C@H]3CC[C@]12C (some centres not stated) | 8.4 µM
6 | C[C@@]12CCCC[C@]13O[C@@H]3C(=O)C(C(=O)Nc1ccccc1)C2 (some centres not stated) | 2.8 µM
7 | C[C@]12CCCC[C@@]13O[C@H]3C(=O)C(C#N)C2 (some centres not stated) | 278 µM
8 | COC(=O)C1C[C@]2(C)[C@H]3CC[C@]4(C)[C@@H](OC(C)=O)CC[C@H]4[C@@H]3CC[C@]23O[C@@H]3C1=O (some centres not stated) | 2.7 µM
9 | COc1ccc(NC(=O)C2C[C@]3(C)CCCC[C@@]3(O)[C@@H](Cl)C2=O)cc1 (some centres not stated) | 33.5 µM
10 | CC(=O)O[C@H]1CC[C@H]2[C@@H]3CC[C@@]45O[C@@H]4C(=O)C(S(C)(=O)=O)C[C@]5(C)[C@H]3CC[C@]12C (some centres not stated) | 2.6 µM
11 | C[C@]12CC[C@H]3[C@@H](CC[C@@]45O[C@@H]4C(=O)C(C(N)=O)C[C@]35C)[C@@H]1CC[C@@H]2O (some centres not stated) | 14.3 µM
12 | C[C@@]12CCCC[C@@]1(O)[C@@H](Cl)C(=O)C(C(N)=O)C2 (some centres not stated) | 16.5 µM
13 | C[C@]12CCC3C(CC[C@@]45O[C@@H]4C(=O)C(S(C)(=O)=O)C[C@]35C)C1CC[C@@H]2O (some centres not stated) | 8.4 µM
14 | C[C@@]12CCCC[C@]13O[C@@H]3C(=O)C(C(N)=O)C2 (some centres not stated) | 9.9 µM
15 | COc1ccc(NC(=O)C2C[C@]3(C)CCCC[C@]34O[C@@H]4C2=O)cc1 (some centres not stated) | 25.7 µM
16 | C[C@]12CCCC[C@@]13O[C@H]3C(=O)C(C(N)=O)C2 (some centres not stated) | 72 µM
17 | COc1ccc(NC(=O)C2CC(C)(C)C3OC3C2=O)cc1 (configuration not stated) | 21.4 µM
18 | C[C@]12CC[C@H]3[C@@H](CC[C@@]45O[C@@H]4C(=O)CC[C@]35C)[C@@H]1CC[C@@H]2O | 15.4 µM
19 | CC1(C)CC(C(=O)Nc2c(Cl)cccc2Cl)C(=O)C2OC21 (configuration not stated) | 31.7 µM
20 | COC(=O)C1C[C@]2(C)[C@H]3CC[C@]4(C)[C@@H](O)CC[C@H]4[C@@H]3CC[C@]23O[C@@H]3C1=O (some centres not stated) | 3.6 µM
21 | CC(=O)O[C@H]1CC[C@H]2[C@@H]3CC[C@@]45O[C@@H]4C(=O)C(C(N)=O)C[C@]5(C)[C@H]3CC[C@]12C (some centres not stated) | 2.6 µM
22 | C[C@@]12CCCC[C@]13O[C@@H]3C(=O)C(C#N)C2 (some centres not stated) | 34 µM
